# Literature values as cited in patent US20050084461A1, “Tooth enamel rejuvenating toothpaste” (priority 2003, published 2005).
# Settings: pH of about 7.0, temperature of about 25° C.
structure (smiles),measurement,value
O.O.O=P([O-])([O-])O.[Ca+2] [dicalcium phosphate dihydrate],calcium cations released in aqueous solution,about 40 ppm
